Twelve molecules from ChEMBL document CHEMBL1201862, “PubChem BioAssay data set” (2004) can be followed below.

Assay in all cases: inhibition of tumour cell growth, NCI panel, 48 h
Experiment [1] concerns 786-0.
Experiment [2] concerns A498.
The subject of experiment [3] is BT-549.
Experiment [4] relates to EKVX.
Experiment [5] deals with HL-60.
The test system of experiment [6] is IGROV-1.
The test system of experiment [7] is KM12.
The subject of experiment [8] is NCI-H460.
Experiment [9] deals with OVCAR-3.
In experiment [10] the test system is OVCAR-4.
The subject of experiment [11] is RXF 393.
Experiment [12] relates to SF-268.
The test system of experiment [13] is TK-10.
For experiment [14], the system named is U-251.
For experiment [15], the system named is UACC-257.
In experiment [16] the test system is UACC-62.
The subject of experiment [17] is OVCAR-8.
The subject of experiment [18] is SK-MEL-2.
Experiment [19] has as its system MDA-N.

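These data come from cells grown in 96-well plates and exposed to compound for 48 hours at five concentrations. Abbreviation: GI50, concentration required for 50% inhibition of growth.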 Active and inactive are the calls of the source. Cut-off read from the data, not from the text of the source: active = GI50 up to about 1.1 µM and inactive = higher. Residues, ends and D or L forms follow the SMILES beside them.

In the case of `CC1=C(N2CC2)C(=O)C(CO)=C(N2CC2)C1=O`, the GI50 in experiment [1] was < 0.0321 µM (active); in [2], 0.0575 µM (active); in experiment [3], 0.13 µM (active); in [4], 0.254 µM (active); in experiment [5], < 0.01 µM (active); in experiment [6], 0.0112 µM (active). Also, the GI50 was 0.0227 µM (active) in experiment [7]; < 0.01 µM (active) in experiment [8]; 0.0203 µM (active) in experiment [9]; 0.103 µM (active) in experiment [10]; 0.0231 µM (active) in experiment [11]; 0.0129 µM (active) in [12]. Moreover, the GI50 was 0.0258 µM (active) in experiment [13], 0.0141 µM (active) in experiment [14], 0.0923 µM (active) in [15] and 0.022 µM (active) in experiment [16].

Consider `Cc1ccc2c(c1)SC1=Nc3sc4cc(C)ccc4[n+]3CN12`, for which the GI50 was 32.2 µM (inactive) in experiment [1]; 11.1 µM (inactive) in experiment [2]; 2.43 µM (inactive) in experiment [3]; 0.687 µM (active) in [4]; 2.07 µM (inactive) in experiment [5]; 16.1 µM (inactive) in experiment [6]. The GI50 in [8] is 11.7 µM (inactive); in experiment [9], 1.01 µM (active); in experiment [10] it was 2.51 µM (inactive); in experiment [17] it was 3.04 µM (inactive); in experiment [11] it was 78.5 µM (inactive); in experiment [12] it was 8.26 µM (inactive). For the same molecule, the GI50 in [18] was 3.51 µM (inactive); in experiment [13] it was 14.9 µM (inactive); in [14] it was 2.58 µM (inactive); in experiment [15], 2.18 µM (inactive); in experiment [16], 3.4 µM (inactive).

In the case of `COC1=CC(=O)c2nc3ccccc3c3ccnc1c23`, the GI50 is 3.64 µM (inactive) in experiment [1]; 14.6 µM (inactive) in experiment [3]; 12.6 µM (inactive) in experiment [4]; 2.38 µM (inactive) in [5]; 3.56 µM (inactive) in [6]; 4.04 µM (inactive) in [7]. The GI50 in experiment [19] is 0.448 µM (active); in [8] it was 0.434 µM (active); in experiment [9], 2.04 µM (inactive); in experiment [10] it was 4.89 µM (inactive); in experiment [17], 3.26 µM (inactive); in [11], 2.61 µM (inactive). In addition, the GI50 was 3.94 µM (inactive) in experiment [12]; 5.64 µM (inactive) in [18]; 19.3 µM (inactive) in experiment [13]; 5.05 µM (inactive) in [14]; 5.16 µM (inactive) in [15]; 1.07 µM (active) in experiment [16].

With `C=CCOC(=O)CCCCCCCCCCCCCCCOC(=O)C1=C(CCC[C@@H](C)O[Si](C)(C)C(C)(C)C)NC(=O)N2[C@H](CC3(CC/C=C\[C@H](CC)O[Si](C(C)C)(C(C)C)C(C)C)OCCO3)CC[C@H]12`, the GI50 in [1], in experiment [2], in [3], in [4], in [7] and in [19] was > 100 µM (inactive) throughout. The GI50 in experiment [8], in experiment [9], in experiment [10], in experiment [12], in experiment [18] and in [13] was > 100 µM (inactive) in each case. The GI50 in experiment [14], in [15] and in experiment [16] was > 100 µM (inactive) each time.

As for `COC(=O)c1cc2c(c(C(=O)OC)c1)CCC2`, the GI50 in [1] is > 100 µM (inactive); in [2], 63.7 µM (inactive); in experiment [4] it was > 100 µM (inactive); in [5], 70.6 µM (inactive); in experiment [6], > 100 µM (inactive); in experiment [19], > 100 µM (inactive). The GI50 in experiment [8] was > 100 µM (inactive); in experiment [9] it was 49.4 µM (inactive); in experiment [10], > 100 µM (inactive); in experiment [17], > 100 µM (inactive); in experiment [11], 82.6 µM (inactive); in [12] it was > 100 µM (inactive). The GI50 in experiment [18], in experiment [13], in [14] and in experiment [15] was > 100 µM (inactive) in each case.

Consider `O=Cc1cc(O)c(O)c(/C=N/n2c3ccccc3c3ccccc32)c1`, for which the GI50 in experiment [1] is 4.41 µM (inactive); in experiment [2], 15.9 µM (inactive); in [3], 2.31 µM (inactive); in experiment [4], 18.9 µM (inactive); in experiment [5], 2.33 µM (inactive); in experiment [7], 7.76 µM (inactive). The GI50 is 6.03 µM (inactive) in experiment [8]; 2.44 µM (inactive) in [9]; 2.17 µM (inactive) in [10]; 2.63 µM (inactive) in [17]; 5.57 µM (inactive) in experiment [11]; 3.98 µM (inactive) in experiment [12]. The GI50 is 13.4 µM (inactive) in experiment [13], 6.14 µM (inactive) in experiment [14], 11.7 µM (inactive) in [15] and 7.83 µM (inactive) in experiment [16].

Turning to `Cc1cc(-c2nc3ccccc3s2)ccc1NC(=O)[C@H](C)N`, the GI50 was 11.1 µM (inactive) in experiment [1]; 14.4 µM (inactive) in experiment [2]; 15.7 µM (inactive) in [3]; 4.38 µM (inactive) in [6]; 14.4 µM (inactive) in [7]; 10.4 µM (inactive) in experiment [19]. In addition, the GI50 in [8] was 10.1 µM (inactive); in [9], 11.4 µM (inactive); in experiment [10], 12.2 µM (inactive); in [17], 17.9 µM (inactive); in experiment [11], 12.3 µM (inactive); in experiment [12], 18.3 µM (inactive). Further, the GI50 was 17.5 µM (inactive) in experiment [18], 15 µM (inactive) in experiment [14], 16.9 µM (inactive) in experiment [15] and 14.8 µM (inactive) in experiment [16].

With `CCOc1ccc(NCC2CC/C(=C\c3ccc(O)cc3)C2=O)cc1` (stereo unspecified), the GI50 is 6.65 µM (inactive) in experiment [1]; 18.2 µM (inactive) in [2]; 12.9 µM (inactive) in experiment [3]; 20.5 µM (inactive) in experiment [4]; 2.22 µM (inactive) in experiment [5]; 18.9 µM (inactive) in experiment [6]. The GI50 in [7] was 12.2 µM (inactive); in experiment [8] it was 23.2 µM (inactive); in experiment [9] it was 12.2 µM (inactive); in [10] it was 17.2 µM (inactive); in experiment [17], 17.9 µM (inactive); in experiment [11], 18.7 µM (inactive). The GI50 in [12] is 15.8 µM (inactive); in experiment [13], 12.7 µM (inactive); in experiment [14] it was 16.7 µM (inactive); in experiment [15], 16.9 µM (inactive); in [16], 19.7 µM (inactive).

As for `O=C(c1ccccc1)c1c2ccccn2c2cccc[n+]12`, the GI50 in [1] is > 100 µM (inactive); in experiment [2], 71.8 µM (inactive); in experiment [3], > 100 µM (inactive); in experiment [4], > 100 µM (inactive); in experiment [5] it was 79.6 µM (inactive); in experiment [6] it was > 100 µM (inactive). The GI50 in experiment [7] is > 100 µM (inactive); in [8], > 100 µM (inactive); in experiment [9] it was > 100 µM (inactive); in experiment [10], > 100 µM (inactive); in [17] it was 88.5 µM (inactive); in [11], > 100 µM (inactive). Further, the GI50 in experiment [12], in [18], in experiment [13], in experiment [14], in experiment [15] and in experiment [16] was > 100 µM (inactive) in each case.

For the molecule `Clc1ccc(/N=c2\oc3ccccc3cc2-c2nc3ccccc3[nH]2)c(Cl)c1`, the GI50 in experiment [3] was > 100 µM (inactive); in experiment [4], 51.2 µM (inactive); in [5] it was > 100 µM (inactive); in experiment [6], > 100 µM (inactive); in [7], > 100 µM (inactive); in experiment [19] it was 83.6 µM (inactive). In addition, the GI50 in [9] is > 100 µM (inactive); in experiment [10] it was > 100 µM (inactive); in experiment [17], > 100 µM (inactive); in experiment [11] it was 18.6 µM (inactive); in experiment [12], 24.2 µM (inactive); in experiment [13], 23.8 µM (inactive). For the same molecule, the GI50 in experiment [15] is > 100 µM (inactive); in experiment [16] it was 24.6 µM (inactive).

Regarding `Cc1cc2cc3c(cc2c(-c2ccc(N)cc2)n1)OCO3`, the GI50 was 25.6 µM (inactive) in experiment [1]; > 100 µM (inactive) in experiment [3]; 35.4 µM (inactive) in experiment [4]; 12 µM (inactive) in [5]; 14.5 µM (inactive) in [6]; 38.9 µM (inactive) in experiment [7]. In addition, the GI50 in [19] is 23.3 µM (inactive); in experiment [8], 21.3 µM (inactive); in experiment [9], 22.4 µM (inactive); in experiment [17], 81.7 µM (inactive); in [12], 22.3 µM (inactive); in [18], 82.8 µM (inactive). Also, the GI50 in experiment [13] is 39.9 µM (inactive); in experiment [14] it was 62.5 µM (inactive); in experiment [15], > 100 µM (inactive); in [16] it was 30.8 µM (inactive).

Regarding `CCC(C)C(NC(=O)C(CC(C)C)NC(=O)CNC(=O)C(NC(=O)C1CCCN1C(=O)C(CC(C)C)NC(=O)C(N)Cc1ccccc1)C(C)CC)C(=O)NC(CC(C)C)C(N)=O` (stereo unspecified) (H-FLPIGLIL-NH2; configuration not given here), the GI50 in experiment [1], in experiment [2], in experiment [3], in experiment [4], in experiment [5] and in experiment [6] was > 75 µM (inactive) throughout. The GI50 in experiment [7], in [19], in experiment [9], in [10], in experiment [17] and in experiment [12] was > 75 µM (inactive) each time. The GI50 in experiment [18], in experiment [13], in experiment [14], in experiment [15] and in experiment [16] was > 75 µM (inactive) throughout.
